Measured values as given in PubChem BioAssay (NCI).
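Values below derive from 48-hour exposures of cells grown in 96-well plates, with endpoints linearly interpolated between the two concentrations bracketing the appropriate inhibition level. GI50 marks 50% less growth. Definition used: TGI = concentration required for complete inhibition of growth.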

What was measured:
Test in all cases: inhibition of tumour cell growth, NCI panel, 48 h; in the data active = GI50 below about 0.43 µM; inactive = the rest
HT29 colon = tested on: HT29 colon
SK-MEL-5 melanoma = tested on: SK-MEL-5 melanoma
A498 renal = tested on: A498 renal
NCI-H226 lung = tested on: NCI-H226 lung
SF-539 CNS = tested on: SF-539 CNS
NCI-H522 lung = tested on: NCI-H522 lung
LOX IMVI melanoma = tested on: LOX IMVI melanoma
A549 NSCLC = tested on: A549 NSCLC
K-562 leukemia = tested on: K-562 leukemia
786-0 renal = tested on: 786-0 renal
CCRF-CEM leukemia = tested on: CCRF-CEM leukemia
KM12 colon = tested on: KM12 colon
M14 melanoma = tested on: M14 melanoma
T-47D breast = tested on: T-47D breast
UACC-62 melanoma = tested on: UACC-62 melanoma
SK-MEL-28 melanoma = tested on: SK-MEL-28 melanoma
MDA-MB-435 = tested on: MDA-MB-435
SR leukemia = tested on: SR leukemia
DU-145 prostate = tested on: DU-145 prostate
BT-549 breast = tested on: BT-549 breast
IGROV1 ovarian = tested on: IGROV1 ovarian
SNB-75 CNS = tested on: SNB-75 CNS
OVCAR-5 ovarian = tested on: OVCAR-5 ovarian
HL-60(TB) leukemia = tested on: HL-60(TB) leukemia
MCF7 breast = tested on: MCF7 breast
CAKI-1 renal = tested on: CAKI-1 renal
OVCAR-8 ovarian = tested on: OVCAR-8 ovarian
SNB-19 CNS = tested on: SNB-19 CNS
RXF 393 renal = tested on: RXF 393 renal
RPMI-8226 leukemia = tested on: RPMI-8226 leukemia
ACHN renal = tested on: ACHN renal
SN12C renal = tested on: SN12C renal
MDA-MB-468 breast = tested on: MDA-MB-468 breast
SF-295 CNS = tested on: SF-295 CNS
SW-620 colon = tested on: SW-620 colon
PC-3 prostate = tested on: PC-3 prostate
EKVX NSCLC = tested on: EKVX NSCLC
HCT-15 colon = tested on: HCT-15 colon
HOP-62 NSCLC = tested on: HOP-62 NSCLC
MALME-3M melanoma = tested on: MALME-3M melanoma
NCI-H23 lung = tested on: NCI-H23 lung
OVCAR-3 ovarian = tested on: OVCAR-3 ovarian
HS 578T breast = tested on: HS 578T breast
COLO 205 colon = tested on: COLO 205 colon
HCC-2998 colon = tested on: HCC-2998 colon
NCI-H460 lung = tested on: NCI-H460 lung
UO-31 renal = tested on: UO-31 renal
HOP-92 NSCLC = tested on: HOP-92 NSCLC
SK-MEL-2 melanoma = tested on: SK-MEL-2 melanoma
UACC-257 melanoma = tested on: UACC-257 melanoma
SK-OV-3 ovarian = tested on: SK-OV-3 ovarian
OVCAR-4 ovarian = tested on: OVCAR-4 ovarian
MDA-MB-231 breast = tested on: MDA-MB-231 breast
TK-10 renal = tested on: TK-10 renal
SF-268 CNS = tested on: SF-268 CNS
MOLT-4 leukemia = tested on: MOLT-4 leukemia
HCT-116 colon = tested on: HCT-116 colon
U251 CNS = tested on: U251 CNS

CC1=C(C(=O)Nc2ccccc2)C(c2cccc3ccccc23)n2c(nc3ccccc32)N1 (stereo unspecified)
95.1 µM: TGI (RXF 393 renal)
96.1 µM: TGI (NCI-H226 lung)
56.9 µM: TGI (HOP-62 NSCLC)
93.1 µM: TGI (MDA-MB-231 breast)
82 µM: TGI (MALME-3M melanoma)
76.9 µM: TGI (SNB-19 CNS)
inactive: GI50 (HT29 colon) > 100 µM | GI50 (SK-MEL-5 melanoma) > 100 µM | GI50 (A498 renal) > 100 µM | GI50 (NCI-H226 lung) 16.4 µM | GI50 (SF-539 CNS) 15.2 µM | GI50 (NCI-H522 lung) > 100 µM | GI50 (LOX IMVI melanoma) 11 µM | GI50 (A549 NSCLC) 4.44 µM | GI50 (K-562 leukemia) > 100 µM | GI50 (786-0 renal) 25.1 µM | GI50 (CCRF-CEM leukemia) > 100 µM | GI50 (KM12 colon) > 100 µM | GI50 (M14 melanoma) > 100 µM | GI50 (T-47D breast) > 100 µM | GI50 (UACC-62 melanoma) > 100 µM | GI50 (SK-MEL-28 melanoma) > 100 µM | GI50 (MDA-MB-435) > 100 µM | GI50 (SR leukemia) > 100 µM | GI50 (DU-145 prostate) 47.3 µM | GI50 (BT-549 breast) 13.1 µM | GI50 (IGROV1 ovarian) 89.2 µM | GI50 (SNB-75 CNS) 1.76 µM | GI50 (OVCAR-5 ovarian) > 100 µM | GI50 (HL-60(TB) leukemia) > 100 µM | GI50 (MCF7 breast) > 100 µM | GI50 (CAKI-1 renal) > 100 µM | GI50 (OVCAR-8 ovarian) 14.5 µM | GI50 (SNB-19 CNS) 9.08 µM | GI50 (RXF 393 renal) 15.4 µM | GI50 (RPMI-8226 leukemia) > 100 µM | GI50 (ACHN renal) 19.3 µM | GI50 (SN12C renal) 9.91 µM | GI50 (MDA-MB-468 breast) 26.6 µM | GI50 (SF-295 CNS) 60.4 µM | GI50 (SW-620 colon) > 100 µM | GI50 (PC-3 prostate) 23.1 µM | GI50 (EKVX NSCLC) 73.7 µM | GI50 (HCT-15 colon) > 100 µM | GI50 (HOP-62 NSCLC) 20.2 µM | GI50 (MALME-3M melanoma) 16.5 µM | GI50 (NCI-H23 lung) > 100 µM | GI50 (OVCAR-3 ovarian) > 100 µM | GI50 (HS 578T breast) 2.9 µM | GI50 (COLO 205 colon) > 100 µM | GI50 (HCC-2998 colon) > 100 µM | GI50 (NCI-H460 lung) > 100 µM | GI50 (UO-31 renal) > 100 µM | GI50 (HOP-92 NSCLC) 16.7 µM | GI50 (SK-MEL-2 melanoma) 83.3 µM | GI50 (UACC-257 melanoma) > 100 µM | GI50 (SK-OV-3 ovarian) > 100 µM | GI50 (OVCAR-4 ovarian) 5.93 µM | GI50 (MDA-MB-231 breast) 10.1 µM | GI50 (TK-10 renal) > 100 µM | GI50 (SF-268 CNS) 30.4 µM | GI50 (MOLT-4 leukemia) > 100 µM | GI50 (HCT-116 colon) 6.62 µM | GI50 (U251 CNS) 11.1 µM
> 100 µM: TGI (HT29 colon) | TGI (SK-MEL-5 melanoma) | TGI (A498 renal) | TGI (SF-539 CNS) | TGI (NCI-H522 lung) | TGI (LOX IMVI melanoma) | TGI (A549 NSCLC) | TGI (K-562 leukemia) | TGI (786-0 renal) | TGI (CCRF-CEM leukemia) | TGI (KM12 colon) | TGI (M14 melanoma) | TGI (T-47D breast) | TGI (UACC-62 melanoma) | TGI (SK-MEL-28 melanoma) | TGI (MDA-MB-435) | TGI (SR leukemia) | TGI (DU-145 prostate) | TGI (BT-549 breast) | TGI (IGROV1 ovarian) | TGI (OVCAR-5 ovarian) | TGI (HL-60(TB) leukemia) | TGI (MCF7 breast) | TGI (CAKI-1 renal) | TGI (OVCAR-8 ovarian) | TGI (RPMI-8226 leukemia) | TGI (ACHN renal) | TGI (SN12C renal) | TGI (MDA-MB-468 breast) | TGI (SF-295 CNS) | TGI (SW-620 colon) | TGI (PC-3 prostate) | TGI (EKVX NSCLC) | TGI (HCT-15 colon) | TGI (NCI-H23 lung) | TGI (OVCAR-3 ovarian) | TGI (COLO 205 colon) | TGI (HCC-2998 colon) | TGI (NCI-H460 lung) | TGI (UO-31 renal) | TGI (HOP-92 NSCLC) | TGI (SK-MEL-2 melanoma) | TGI (UACC-257 melanoma) | TGI (SK-OV-3 ovarian) | TGI (OVCAR-4 ovarian) | TGI (TK-10 renal) | TGI (SF-268 CNS) | TGI (MOLT-4 leukemia) | TGI (HCT-116 colon) | TGI (U251 CNS)
5.95 µM: TGI (SNB-75 CNS)
20.1 µM: TGI (HS 578T breast)
